PubChem BioAssay AID248 (DTP/NCI, 2004)
“And” between values parts separate entries of the source, which are not always exact repeats. Equal values may be shown once. Inconclusive results and toxic doses are left out. Rule as the data show it: active = T/C of 150% or more; inactive = T/C below 125%.

Tested on: L1210 leukemia ip in BDF1 mice, survival T/C
Assay: NCI In Vivo Anticancer Drug Screen. Data for tumor model L1210 Leukemia (intraperitoneal) in B6D2F1 (BDF1) mice
Settings: endpoint: mean survival time, higher = longer survival
Summary of the method: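 In this screen, tumor-bearing mice given compound are compared to those given vehicle, and their survival values are reported as a treated-to-control quotient.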

[1] = dose: 100.0 mg/kg/injection, schedule: Q01DX009 (ip), vehicle: Klucel (hydroxypropylcellulose) (HPC)
[2] = dose: 100.0 mg/kg/injection, schedule: Q04DX003 (ip), vehicle: Klucel (hydroxypropylcellulose) (HPC)
[3] = dose: 200.0 mg/kg/injection, schedule: Q01DX009 (ip), vehicle: Klucel (hydroxypropylcellulose) (HPC)
[4] = dose: 200.0 mg/kg/injection, schedule: Q04DX003 (ip), vehicle: Klucel (hydroxypropylcellulose) (HPC)
[5] = dose: 400.0 mg/kg/injection, schedule: Q01DX009 (ip), vehicle: Klucel (hydroxypropylcellulose) (HPC)
[6] = dose: 400.0 mg/kg/injection, schedule: Q04DX003 (ip), vehicle: Klucel (hydroxypropylcellulose) (HPC)
[7] = dose: 200.0 mg/kg/injection, schedule: Q01DX001 (ip), vehicle: carboxymethylcellulose (CMC)
[8] = dose: 100.0 mg/kg/injection, schedule: Q01DX009 (ip), vehicle: saline with Tween-80
[9] = dose: 200.0 mg/kg/injection, schedule: Q01DX009 (ip), vehicle: saline with Tween-80
[10] = dose: 100.0 mg/kg/injection, schedule: Q04DX003 (ip), vehicle: saline
[11] = dose: 200.0 mg/kg/injection, schedule: Q04DX003 (ip), vehicle: saline
[12] = dose: 100.0 mg/kg/injection, schedule: Q04DX002 (ip), vehicle: Klucel (hydroxypropylcellulose) (HPC)
[13] = dose: 200.0 mg/kg/injection, schedule: Q04DX002 (ip), vehicle: Klucel (hydroxypropylcellulose) (HPC)
[14] = dose: 50.0 mg/kg/injection, schedule: Q04DX003 (ip), vehicle: Klucel (hydroxypropylcellulose) (HPC)
[15] = dose: 50.0 mg/kg/injection, schedule: Q01DX009 (ip), vehicle: saline with Tween-80
[16] = dose: 100.0 mg/kg/injection, schedule: Q04DX003 (ip), vehicle: saline with Tween-80
[17] = dose: 200.0 mg/kg/injection, schedule: Q04DX003 (ip), vehicle: saline with Tween-80
[18] = dose: 400.0 mg/kg/injection, schedule: Q04DX003 (ip), vehicle: saline with Tween-80
[19] = dose: 100.0 mg/kg/injection, schedule: Q01DX001 (ip), vehicle: carboxymethylcellulose (CMC)
[20] = dose: 400.0 mg/kg/injection, schedule: Q01DX001 (ip), vehicle: carboxymethylcellulose (CMC)

Measured: T/C

CN(CCC(=O)c1cccc2ccccc12)Cc1ccccc1
inactive: dose: 50.0 mg/kg/injection, schedule: Q01DX009 (ip), vehicle: Klucel (hydroxypropylcellulose) (HPC) 98 % of control | [1] 97 % of control | [2] 100 % of control | [3] 92 % of control | [4] 91 % of control | [5] 95 % of control | [6] 100 % of control

CCOc1cc(/C=N\NC(=O)CCCC(=O)N/N=C/c2ccc(O)c(OCC)c2)ccc1O
inactive: [7] 95 % of control

CCc1ccccc1NC(=O)Nc1cccc(O)c1
inactive: [8] 100 % of control | [9] 89 % of control | dose: 400.0 mg/kg/injection, schedule: Q01DX009 (ip), vehicle: saline with Tween-80 94 % of control

COC1CCC2CC3C4Cc5cn[nH]c5C5OC1C2C54CCN3C (configuration not stated)
inactive: [10] 95 % of control | [11] 86 % of control

CCCc1[nH]nc(C(=O)OC)c1N=NN(C)C
inactive: dose: 173.0 mg/kg/injection, schedule: Q01DX001 (ip), vehicle: other 110 % of control | dose: 266.0 mg/kg/injection, schedule: Q01DX001 (ip), vehicle: other 112 % of control | dose: 400.0 mg/kg/injection, schedule: Q01DX001 (ip), vehicle: other 115 % of control | dose: 600.0 mg/kg/injection, schedule: Q01DX001 (ip), vehicle: other 123 % of control

O=C(O)c1ccccc1C(=O)N1CCCC1
inactive: [12] 96 % of control | [13] 86 % of control | dose: 400.0 mg/kg/injection, schedule: Q04DX002 (ip), vehicle: Klucel (hydroxypropylcellulose) (HPC) 93 % of control

CCOC(=O)c1ccc(NC(=O)Oc2ccc(C=O)cc2OC)cc1
inactive: [1] 93 % of control | [3] 101 % of control | [5] 95 % of control

O=C1COC(=O)CO1
inactive: [14] 104 % of control | dose: 100.0 mg/kg/injection, schedule: Q01DX009 (ip), vehicle: saline 86 % of control | [2] 100 % of control | dose: 200.0 mg/kg/injection, schedule: Q01DX009 (ip), vehicle: saline 86 % of control | [4] 96 % of control

Cc1ccc[n+](Cc2ccccc2)c1
inactive: dose: 12.5 mg/kg/injection, schedule: Q04DX003 (ip), vehicle: saline 98 % of control | dose: 25.0 mg/kg/injection, schedule: Q04DX003 (ip), vehicle: saline 101 % of control | dose: 50.0 mg/kg/injection, schedule: Q04DX003 (ip), vehicle: saline 97 % of control

C[N+]1(C)CCC2=CC3C=CC2C1C=C3 (configuration not stated)
inactive: dose: 12.5 mg/kg/injection, schedule: Q01DX009 (ip), vehicle: saline 95 % of control | dose: 25.0 mg/kg/injection, schedule: Q01DX009 (ip), vehicle: saline 93 % of control | dose: 50.0 mg/kg/injection, schedule: Q01DX009 (ip), vehicle: saline 90 % of control

CCOC(=O)/C=C/P(=O)(OCC)OCC
inactive: [10] 108 % of control | [11] 94 % of control | dose: 400.0 mg/kg/injection, schedule: Q04DX003 (ip), vehicle: saline 96 % of control

N#CCCC(C#N)(c1ccncc1)N1CCOCC1 (configuration not stated)
inactive: dose: 12.5 mg/kg/injection, schedule: Q01DX009 (ip), vehicle: saline with Tween-80 105 % of control | dose: 25.0 mg/kg/injection, schedule: Q01DX009 (ip), vehicle: saline with Tween-80 102 % of control | [15] 94 % of control and 91 % of control

c1ccc([C@H]2N[C@H]2c2ccccc2)cc1
inactive: [2] 96 % of control | [4] 95 % of control | [6] 98 % of control

CC(C)(C)C(=O)Cn1nnnc1C(=O)C(C)(C)C
inactive: [14] 105 % of control | dose: 100.0 mg/kg/injection, schedule: Q01DX001 (ip), vehicle: Klucel (hydroxypropylcellulose) (HPC) 105 % of control | [2] 103 % of control | dose: 200.0 mg/kg/injection, schedule: Q01DX001 (ip), vehicle: Klucel (hydroxypropylcellulose) (HPC) 108 % of control | [4] 100 % of control

CCOC(=O)/C(N=O)=C(/O)c1ccccc1
inactive: [16] 103 % of control | [17] 94 % of control | [18] 96 % of control

C=CCNC(=S)NNC(=S)NNc1ccccc1
inactive: dose: 100.0 mg/kg/injection, schedule: Q01DX009 (ip), vehicle: acetone 98 % of control | [16] 118 % of control | dose: 200.0 mg/kg/injection, schedule: Q01DX009 (ip), vehicle: acetone 90 % of control | [17] 93 % of control | [18] 96 % of control

C[C@]12CC[C@H]3[C@@H](CC[C@]4(O)C[C@@H](O)CC[C@]34C=O)[C@@]1(O)CC[C@@H]2c1ccc(=O)oc1
inactive: dose: 5.0 mg/kg/injection, schedule: Q01DX001 (ip), vehicle: saline 96 % of control | dose: 10.0 mg/kg/injection, schedule: Q01DX001 (ip), vehicle: saline 95 % of control | dose: 20.0 mg/kg/injection, schedule: Q01DX001 (ip), vehicle: saline 104 % of control | dose: 40.0 mg/kg/injection, schedule: Q01DX001 (ip), vehicle: saline 98 % of control | dose: 80.0 mg/kg/injection, schedule: Q01DX001 (ip), vehicle: saline 95 % of control

NCC1=NCCN1
inactive: dose: 25.0 mg/kg/injection, schedule: Q04DX002 (ip), vehicle: saline 93 % of control | dose: 50.0 mg/kg/injection, schedule: Q04DX002 (ip), vehicle: saline 97 % of control | dose: 100.0 mg/kg/injection, schedule: Q04DX002 (ip), vehicle: saline 101 % of control | dose: 200.0 mg/kg/injection, schedule: Q04DX002 (ip), vehicle: saline 93 % of control

S=c1nc(-c2ccccc2)[nH][nH]1
inactive: [16] 97 % of control | [17] 98 % of control | [18] 88 % of control

C1CCC2(CC1)OOC1(CCCCC1)OOC1(CCCC1)OO2
inactive: [15] 104 % of control | [8] 96 % of control | [9] 110 % of control

Cc1ccccc1SCN(CSc1ccccc1C)C(C)(C)CC(C)(C)C
inactive: [19] 101 % of control

O=c1nc(-c2ccccc2)c(-c2ccccc2)n[nH]1
inactive: [15] 91 % of control | [8] 98 % of control | [2] 107 % of control | [9] 98 % of control | [4] 100 % of control | [6] 102 % of control

N#Cc1nc(N)c(NC2(O)C(=O)Nc3ccccc32)nc1C#N (configuration not stated)
inactive: [12] 97 % of control | [13] 105 % of control

COc1ccc(Oc2cc(OC)ccc2Oc2ccccc2)cc1
inactive: [19] 97 % of control | [7] 105 % of control | [20] 110 % of control

N#CC1(Cc2ccc(OCc3ccccc3)c(OCc3ccccc3)c2)c2ccccc2C=CN1C(=O)c1ccccc1 (configuration not stated)
inactive: dose: 25.0 mg/kg/injection, schedule: Q04DX003 (ip), vehicle: saline with Tween-80 100 % of control | dose: 50.0 mg/kg/injection, schedule: Q04DX003 (ip), vehicle: saline with Tween-80 91 % of control | [16] 89 % of control

O=S(CCCl)c1ccccc1 (configuration not stated)
inactive: [2] 98 % of control | [4] 98 % of control | [6] 98 % of control

O=S(=O)(NCCCl)c1cc(Cl)c(Cl)cc1Cl
inactive: [19] 97 % of control | [7] 94 % of control | [20] 94 % of control

FC(F)C(F)(F)C(F)(F)C(F)(F)C(F)(F)C(F)(F)COc1nc(OCC(F)(F)C(F)(F)C(F)(F)C(F)(F)C(F)(F)C(F)F)nc(OCC(F)(F)C(F)(F)C(F)(F)C(F)(F)C(F)(F)C(F)F)n1
inactive: dose: 25.6 mg/kg/injection, schedule: Q04DX002 (ip), vehicle: saline with Tween-80 97 % of control | [15] 89 % of control | dose: 64.0 mg/kg/injection, schedule: Q04DX002 (ip), vehicle: saline with Tween-80 91 % of control | [8] 92 % of control | [16] 91 % of control | dose: 160.0 mg/kg/injection, schedule: Q04DX002 (ip), vehicle: saline with Tween-80 97 % of control | [9] 90 % of control | [17] 86 % of control | dose: 400.0 mg/kg/injection, schedule: Q04DX002 (ip), vehicle: saline with Tween-80 91 % of control | [18] 87 % of control
